# Measurements from patent US20250136606A1, “MODULATORS OF TRPML, THEIR COMPOSITIONS AND METHODS OF USE” (Caraway Therapeutics, Inc., priority 2021, published 2025).
# Tests used:
# Format in all cases: cell-based
# Details in all cases: fluorescent calcium assay
# TRPML2 = target: T1, TRPML2 (Homo sapiens, UniProt Q8IZK6); assay: Fluorescent TRPML2 assay (performed as for TRPML1, substituting the TRPML2 subtype)
# T1 construct: expressed in transfected cells
# T1 sequence (Q8IZK6 1-566): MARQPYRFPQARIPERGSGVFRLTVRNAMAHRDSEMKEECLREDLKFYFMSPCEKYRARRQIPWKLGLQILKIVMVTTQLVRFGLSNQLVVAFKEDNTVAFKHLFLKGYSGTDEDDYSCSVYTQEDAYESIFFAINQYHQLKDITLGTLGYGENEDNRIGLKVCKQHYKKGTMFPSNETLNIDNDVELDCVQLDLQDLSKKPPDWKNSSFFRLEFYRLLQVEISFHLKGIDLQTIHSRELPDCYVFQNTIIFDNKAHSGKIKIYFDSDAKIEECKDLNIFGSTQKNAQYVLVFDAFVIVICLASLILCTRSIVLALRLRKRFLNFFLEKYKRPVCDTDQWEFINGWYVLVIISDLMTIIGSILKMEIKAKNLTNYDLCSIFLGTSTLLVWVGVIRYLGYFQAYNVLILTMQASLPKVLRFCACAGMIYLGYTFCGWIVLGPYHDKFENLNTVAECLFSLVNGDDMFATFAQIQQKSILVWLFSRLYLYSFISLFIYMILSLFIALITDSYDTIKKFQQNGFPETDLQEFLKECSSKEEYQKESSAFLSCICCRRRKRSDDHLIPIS
# Method in brief: (§1)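 Compound series (final 6 nM-20 μM, half-log, triplicate) were added to Fluo4-AM-loaded HEK-293 Trex cells in 10 mM calcium Ringer's, expressing the human TRPML subtype after doxycycline 0.5 ug/mL induction. Percent activity versus positive/negative controls from 480/540 nm fluorescence; EC50 by non-linear regression.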
# TRPML3 = target: T2, TRPML3 (Homo sapiens, UniProt Q8TDD5); assay: Fluorescent TRPML3 assay (performed as for TRPML1, substituting the TRPML3 subtype)
# T2 construct: expressed in transfected cells
# T2 sequence (Q8TDD5 1-553): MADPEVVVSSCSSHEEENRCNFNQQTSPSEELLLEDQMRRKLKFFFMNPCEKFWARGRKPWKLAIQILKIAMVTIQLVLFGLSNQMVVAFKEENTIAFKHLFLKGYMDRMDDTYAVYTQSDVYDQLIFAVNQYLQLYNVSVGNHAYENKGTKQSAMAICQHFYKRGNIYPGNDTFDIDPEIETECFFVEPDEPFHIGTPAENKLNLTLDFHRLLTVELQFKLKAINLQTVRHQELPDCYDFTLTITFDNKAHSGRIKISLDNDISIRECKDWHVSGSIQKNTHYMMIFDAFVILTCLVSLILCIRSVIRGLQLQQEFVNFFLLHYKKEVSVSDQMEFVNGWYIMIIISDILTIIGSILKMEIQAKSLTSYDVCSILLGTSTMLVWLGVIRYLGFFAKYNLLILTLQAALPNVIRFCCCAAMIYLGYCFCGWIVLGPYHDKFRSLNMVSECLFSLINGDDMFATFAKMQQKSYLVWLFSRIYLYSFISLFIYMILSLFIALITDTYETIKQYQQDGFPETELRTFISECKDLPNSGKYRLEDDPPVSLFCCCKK
# Method in brief: as §1
# TRPML1 = TRPML1 (Homo sapiens, UniProt Q9GZU1); assay: Fluorescent TRPML1 assay (Fluo4-AM calcium fluorescence in doxycycline-induced HEK-293 Trex cells)
# TRPML1, sequence (Q9GZU1 whole entry L15A/L16A/L577A/L578A, form open): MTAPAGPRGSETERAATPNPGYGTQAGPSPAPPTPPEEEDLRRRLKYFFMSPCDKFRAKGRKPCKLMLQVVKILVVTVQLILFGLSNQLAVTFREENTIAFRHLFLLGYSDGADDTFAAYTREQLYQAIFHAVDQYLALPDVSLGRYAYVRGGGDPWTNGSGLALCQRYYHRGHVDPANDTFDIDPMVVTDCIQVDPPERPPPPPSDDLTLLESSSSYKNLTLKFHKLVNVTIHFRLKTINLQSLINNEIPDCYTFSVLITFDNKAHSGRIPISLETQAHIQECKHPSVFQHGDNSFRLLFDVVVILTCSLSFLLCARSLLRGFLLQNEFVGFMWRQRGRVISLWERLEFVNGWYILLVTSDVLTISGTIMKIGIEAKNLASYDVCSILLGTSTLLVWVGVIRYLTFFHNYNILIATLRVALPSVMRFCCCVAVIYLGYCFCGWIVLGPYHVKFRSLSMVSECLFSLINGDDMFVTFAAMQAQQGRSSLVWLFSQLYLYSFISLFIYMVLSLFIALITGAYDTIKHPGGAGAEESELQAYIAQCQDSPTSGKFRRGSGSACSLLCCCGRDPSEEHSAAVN
# Method in brief: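 First, expression of surface-targeted mutant human TRPML1 is induced in HEK-293 Trex cells with 0.5 ug/mL doxycycline the day before. Next, cells take up 1 micromolar Fluo4-AM in Ringer's with 0.1% Pluronic. Finally, they are added to compounds (6 nanomolar–20 micromolar final) in 10 mM calcium Ringer's and fluorescence is read.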
Compound,EC50 (TRPML2),EC50 (TRPML3),EC50 (TRPML1)
"C[C@@H]1CN(c2ncnc3c2c(-n2ccnc2)cn3-c2cccc(Cl)c2)CCN1C(=O)OC(C)(C)C [Compound 342, tert-butyl (R)-4-(7-(3-chlorophenyl)-5-(1H-imidazol-1-yl)-7H-pyrrolo[2,3-d]pyrimidin-4-yl)-2-methylpiperazine-1-carboxylate]",500 to 2000 nM,100 to 500 nM,< 100 nM
C[C@H]1CN(C(=O)OC(C)(C)C)CCN1c1ncnc2c1c(C1CC1)nn2-c1cc(C#N)ccn1 [Compound 343],> 2000 nM,100 to 500 nM,500 to 2000 nM
"C[C@H]1CN(C(=O)OC(C)(C)C)CCN1c1ncnc2c1c(N1CCOCC1)cn2C1CCCCC1 [Compound 344, tert-butyl (S)-4-(7-cyclohexyl-5-morpholino-7H-pyrrolo[2,3-d]pyrimidin-4-yl)-3-methylpiperazine-1-carboxylate]",> 2000 nM,100 to 500 nM,100 to 500 nM
"C[C@H]1CN(C(=O)OC(C)(C)C)CCN1c1ncnc2c1c(C1CC1)cn2C1CCCOC1 (stereo partly drawn) [Compound 345, tert-butyl (3S)-4-(5-cyclopropyl-7-(tetrahydro-2H-pyran-3-yl)-7H-pyrrolo[2,3-d]pyrimidin-4-yl)-3-methylpiperazine-1-carboxylate]",> 2000 nM,500 to 2000 nM,500 to 2000 nM
"C[C@@H]1CN(c2cn(-c3cccc(C#N)c3)c3ncnc(N4CCN(C(=O)OC(C)(C)C)C[C@@H]4C)c23)CCO1 [Compound 363, tert-butyl (S)-4-(7-(3-cyanophenyl)-5-((R)-2-methylmorpholino)-7H-pyrrolo[2,3-d]pyrimidin-4-yl)-3-methylpiperazine-1-carboxylate]",500 to 2000 nM,< 100 nM,100 to 500 nM
"CCN(CC)c1cn(-c2cccc(Cl)c2)c2ncnc(N3CCN(C(=O)OC(C)(C)C)C[C@@H]3C)c12 [Compound 366, tert-butyl (S)-4-(7-(3-chlorophenyl)-5-(diethylamino)-7H-pyrrolo[2,3-d]pyrimidin-4-yl)-3-methylpiperazine-1-carboxylate]",100 to 500 nM,< 100 nM,< 100 nM
"C[C@@H]1CN(c2ncnc3c2c(-c2ccccn2)cn3-c2cc(C#N)ccn2)CCN1C(=O)OC(C)(C)C [Compound 367, tert-butyl (R)-4-(7-(4-cyanopyridin-2-yl)-5-(pyridin-2-yl)-7H-pyrrolo[2,3-d]pyrimidin-4-yl)-2-methylpiperazine-1-carboxylate]",100 to 500 nM,< 100 nM,< 100 nM
"C[C@H]1CN(C(=O)OCC(F)(F)F)CCN1c1ncnc2c1c(C1CC1)cn2-c1cc(C#N)ccn1 [Compound 368, 2,2,2-trifluoroethyl (S)-4-(7-(4-cyanopyridin-2-yl)-5-cyclopropyl-7H-pyrrolo[2,3-d]pyrimidin-4-yl)-3-methylpiperazine-1-carboxylate]",500 to 2000 nM,< 100 nM,< 100 nM

# Second part, the compound after the results:
EC50 (TRPML2),EC50 (TRPML3),EC50 (TRPML1),Compound
< 100 nM,< 100 nM,< 100 nM,"CCOC(=O)N1CCN(c2ncnc3c2c(-c2ccccc2F)cn3-c2cc(C#N)ccn2)[C@@H](C)C1 [Compound 346, ethyl (S)-4-(7-(4-cyanopyridin-2-yl)-5-(2-fluorophenyl)-7H-pyrrolo[2,3-d]pyrimidin-4-yl)-3-methylpiperazine-1-carboxylate]"
< 100 nM,< 100 nM,< 100 nM,"CC(C)OC(=O)N1CCN(c2ncnc3c2c(-c2ccccc2F)cn3-c2cc(C#N)ccn2)[C@@H](C)C1 [Compound 347, isopropyl (S)-4-(7-(4-cyanopyridin-2-yl)-5-(2-fluorophenyl)-7H-pyrrolo[2,3-d]pyrimidin-4-yl)-3-methylpiperazine-1-carboxylate]"
< 100 nM,< 100 nM,< 100 nM,"CC(OC(=O)N1CCN(c2ncnc3c2c(-c2ccccc2F)cn3-c2cc(C#N)ccn2)[C@@H](C)C1)C(F)(F)F (stereo partly drawn) [Compound 348, 1,1,1-trifluoropropan-2-yl (3S)-4-(7-(4-cyanopyridin-2-yl)-5-(2-fluorophenyl)-7H-pyrrolo[2,3-d]pyrimidin-4-yl)-3-methylpiperazine-1-carboxylate]"
< 100 nM,< 100 nM,< 100 nM,"C[C@H]1CN(C(=O)OCC(F)(F)F)CCN1c1ncnc2c1c(-c1ccccc1F)cn2-c1cc(C#N)ccn1 [Compound 349, 2,2,2-trifluoroethyl (S)-4-(7-(4-cyanopyridin-2-yl)-5-(2-fluorophenyl)-7H-pyrrolo[2,3-d]pyrimidin-4-yl)-3-methylpiperazine-1-carboxylate]"
< 100 nM,< 100 nM,< 100 nM,"C[C@H]1CN(C(=O)OC(C)(C)C)CCN1c1ncnc2c1c(N1CCC1)cn2-c1cccc(C#N)c1 [Compound 350, tert-butyl (S)-4-(5-(azetidin-1-yl)-7-(3-cyanophenyl)-7H-pyrrolo[2,3-d]pyrimidin-4-yl)-3-methylpiperazine-1-carboxylate]"
< 100 nM,< 100 nM,< 100 nM,"C[C@H]1CN(C(=O)OC(C)(C)C)CCN1c1ncnc2c1c(-c1ccccn1)cn2-c1cc(C#N)ccn1 [Compound 352, tert-butyl (S)-4-(7-(4-cyanopyridin-2-yl)-5-(pyridin-2-yl)-7H-pyrrolo[2,3-d]pyrimidin-4-yl)-3-methylpiperazine-1-carboxylate]"
< 100 nM,< 100 nM,< 100 nM,"C[C@H]1CN(C(=O)OC(C)(C)C)CCN1c1ncnc2c1c(-c1cccnc1)cn2-c1cc(C#N)ccn1 [Compound 353, tert-butyl (S)-4-(7-(4-cyanopyridin-2-yl)-5-(pyridin-3-yl)-7H-pyrrolo[2,3-d]pyrimidin-4-yl)-3-methylpiperazine-1-carboxylate]"
< 100 nM,< 100 nM,< 100 nM,"C[C@H]1CN(C(=O)OC(C)(C)C)CCN1c1ncnc2c1c(-c1ccncc1)cn2-c1cc(C#N)ccn1 [Compound 354, tert-butyl (S)-4-(7-(4-cyanopyridin-2-yl)-5-(pyridin-4-yl)-7H-pyrrolo[2,3-d]pyrimidin-4-yl)-3-methylpiperazine-1-carboxylate]"
< 100 nM,< 100 nM,< 100 nM,"C[C@H]1CN(C(=O)OC(C)(C)C)CCN1c1ncnc2c1c(-c1ccncc1F)cn2-c1cc(C#N)ccn1 [Compound 355, tert-butyl (S)-4-(7-(4-cyanopyridin-2-yl)-5-(3-fluoropyridin-4-yl)-7H-pyrrolo[2,3-d]pyrimidin-4-yl)-3-methylpiperazine-1-carboxylate]"
100 to 500 nM,< 100 nM,< 100 nM,"C[C@@H]1CN(c2ncnc3c2c(N2CCCC2)cn3-c2cc(F)c(F)c(F)c2)CCN1C(=O)OC(C)(C)C [Compound 362, tert-butyl (R)-2-methyl-4-(5-(pyrrolidin-1-yl)-7-(3,4,5-trifluorophenyl)-7H-pyrrolo[2,3-d]pyrimidin-4-yl)piperazine-1-carboxylate]"
100 to 500 nM,< 100 nM,< 100 nM,"C[C@H]1CN(C(=O)OC(C)(C)C)CCN1c1ncnc2c1c(C1CC1)cn2C12CCC(CC1)CC2 [Compound 364, tert-butyl (S)-4-(7-(bicyclo[2.2.2]octan-1-yl)-5-cyclopropyl-7H-pyrrolo[2,3-d]pyrimidin-4-yl)-3-methylpiperazine-1-carboxylate]"
100 to 500 nM,< 100 nM,< 100 nM,"C[C@H]1CN(C(=O)OC(C)(C)C)CCN1c1ncnc2c1c(C1CC1(F)F)cn2-c1cc(C#N)ccn1 (stereo partly drawn) [Compound 365, tert-butyl (3S)-4-(7-(4-cyanopyridin-2-yl)-5-(2,2-difluorocyclopropyl)-7H-pyrrolo[2,3-d]pyrimidin-4-yl)-3-methylpiperazine-1-carboxylate]"
